Laboratory results: patent US11000033B2, “Ketone or oxime compound, and herbicide” (NISSAN CHEMICAL CORPORATION, priority 2014, dated 2021)

Legend:
Format in all cases: in vivo
soybean = assay: Test Example 4: effect on crop by soil treatment (symbol d); settings: application herbicide amount 320 g/ha
How it was run: (§1)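 The test used sterilized diluvial soil. Seed was set down in spots and overlaid with about 1.5 cm of soil before growth in a greenhouse kept at 25° C. to 30° C.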

Alopecurus myosuroides [1] = assay: Test Example 4: herbicidal effect by soil treatment (symbol J); settings: application herbicide amount 320 g/ha
How it was run: (§2)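 Seeds were sown in sterilized diluvial soil, covered with about 1.5 cm of soil, and the soil surface was sprayed with a water-diluted emulsion of the compound at a predetermined rate. Plants grew in a greenhouse at 25° C. to 30° C.; effects were scored visually 3 weeks after application.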

[2] = tested on: Echinochloa oryzacola Vasing.; assay: Test Example 1: herbicidal activity, application before weed generation in submerged conditions (symbol A); settings: application herbicide amount 320 g/ha
How it was run: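 Weeds are sown into submerged alluvial soil alongside transplanted 2.5-leaf rice, and the compound, as an emulsion diluted to a set rate, is applied onto the water before emergence. Rating on the 0–5 herbicidal-ratio scale follows 3 weeks of greenhouse growth at 25–30 °C.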

[3] = tested on: Echinochloa crus-galli var. crus-galli; assay: Test Example 4: herbicidal effect by soil treatment (symbol H); settings: application herbicide amount 320 g/ha
How it was run: as §2

[4] = tested on: Echinochloa oryzacola Vasing.; assay: Test Example 2: herbicidal activity, application during weed generation in submerged conditions (symbol A); settings: Table 23; application herbicide amount 320 g/ha; grade 0-5 by criteria of Test Example 1
How it was run: (§3)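 Flooded-soil post-emergence test: emulsion of compound, water-diluted to target rate, applied to paddy water surface at 1–2 leaf stage of mixed-sown weeds (alluvial soil, 4 cm water, 25–30° C. greenhouse); visual rating 3 weeks after application.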

Amaranthus retroflexus = assay: Test Example 5: herbicidal effect by foliage application, plastic box (symbol N); settings: 320 g/ha, 3 weeks after application
How it was run: (§4)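 Visual herbicidal score, taken three weeks post-application, of seedlings sprayed on the foliage with water-diluted emulsion at a predetermined amount; plants were 14 days old, greenhouse-raised at 25° C. to 30° C.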

Monochoria vaginalis = assay: Test Example 2: herbicidal activity, application during weed generation in submerged conditions (symbol C); settings: Table 23; application herbicide amount 320 g/ha; grade 0-5 by criteria of Test Example 1
How it was run: as §3

Alopecurus myosuroides [5] = assay: Test Example 5: herbicidal effect by foliage application, plastic box (symbol J); settings: 320 g/ha, 3 weeks after application
How it was run: as §4

beet = assay: Test Example 4: effect on crop by soil treatment (symbol f); settings: application herbicide amount 320 g/ha
How it was run: as §1

Cyperus difformis = assay: Test Example 3: herbicidal effect by foliage application, Wagner pot (symbol E); settings: application herbicide amount 320 g/ha
How it was run: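 Rating at 3 weeks post-spray, by defined criteria. Treatment: emulsion diluted with water to a predetermined amount, applied evenly to foliage of 14-day-old plants raised in alluvial soil flooded 0.1–0.5 cm deep at 25–30 °C, rice co-sown.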

wheat [6] = assay: Test Example 4: effect on crop by soil treatment (symbol e); settings: application herbicide amount 320 g/ha
How it was run: as §1

wheat [7] = assay: Test Example 5: effect on crop by foliage application, plastic box (symbol e); settings: 320 g/ha, 3 weeks after application
How it was run: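 Diluvial soil, sterilized and boxed (21 × 13 × 7 cm), received spot-sown seed covered by about 1.5 cm soil; plants were then greenhouse-grown at 25–30° C.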

| Structure (SMILES) | d: soybean, effect on crop grade (soybean) | J: Alopecurus myosuroides, herbicidal effect grade (Alopecurus myosuroides [1]) | Herbicidal effect grade, A: Echinochloa oryzacola Vasing. [2] | H: Echinochloa crus-galli var. crus-galli, herbicidal effect grade [3] | Herbicidal effect grade, A: Echinochloa oryzacola Vasing. [4] | N: Amaranthus retroflexus, herbicidal effect (criteria of Test Example 1) (Amaranthus retroflexus) | Herbicidal effect grade, C: Monochoria vaginalis (Monochoria vaginalis) | J: Alopecurus myosuroides, herbicidal effect (criteria of Test Example 1) (Alopecurus myosuroides [5]) | f: beet, effect on crop grade (beet) | herbicidal effect on E, grade 0-5 (Cyperus difformis) | e: wheat, effect on crop grade (wheat [6]) | e: wheat, effect on crop (criteria of Test Example 1) (wheat [7]) | d (soybean) effect on crop grade (soybean) | J (Alopecurus myosuroides) herbicidal effect grade (Alopecurus myosuroides [1]) | H (Echinochloa crus-galli var. crus-galli) herbicidal effect grade [3] | N: Amaranthus retroflexus, herbicidal effect grade (Amaranthus retroflexus) | J: Alopecurus myosuroides, herbicidal effect grade (Alopecurus myosuroides [5]) | f (beet) effect on crop grade (beet) | e (wheat) effect on crop grade (wheat [6]) | e: wheat, effect on crop grade (wheat [7]) |
| --- | --- | --- | --- | --- | --- | --- | --- | --- | --- | --- | --- | --- | --- | --- | --- | --- | --- | --- | --- | --- |
| CON=C(C)CC1CC(OC(=O)N(C)C)=C(c2c(C)cc(-c3ccc(Cl)cc3)cc2C)C1=O (mixture of isomers) [6-063] | 0 (Herbicidal ratio of 5% or lower (almost no effect)) | 0 (Herbicidal ratio of 5% or lower (almost no effect)) | 5 (Herbicidal ratio of 90% or more (almost completely withered)) | 0 (Herbicidal ratio of 5% or lower (almost no effect)) | 2 (Herbicidal ratio of 20% or higher and lower than 40%) | 0 (Herbicidal ratio of 5% or lower (almost no effect)) | 2 (Herbicidal ratio of 20% or higher and lower than 40%) | 3 (Herbicidal ratio of 40% or higher and lower than 70%) | 0 (Herbicidal ratio of 5% or lower (almost no effect)) | 1 (Herbicidal ratio of 5% or higher and lower than 20%) | 0 (Herbicidal ratio of 5% or lower (almost no effect)) | 4 (Herbicidal ratio of 70% or higher and lower than 90%) |  |  |  |  |  |  |  |  |
| CON=C(C)CC1CC(OC(=O)C(C)(C)CCl)=C(c2c(C)cc(C)cc2C)C1=O (stereo not drawn) [1-016] |  |  | 5 (Herbicidal ratio of 90% or more (almost completely withered)) |  | 5 (Herbicidal ratio of 90% or more (almost completely withered)) |  | 3 (Herbicidal ratio of 40% or higher and lower than 70%) |  |  | 5 (Herbicidal ratio of 90% or more (almost completely withered)) |  |  | 3 (Herbicidal ratio of 40% or higher and lower than 70%) | 5 (Herbicidal ratio of 90% or more (almost completely withered)) | 5 (Herbicidal ratio of 90% or more (almost completely withered)) | 4 (Herbicidal ratio of 70% or higher and lower than 90%) | 5 (Herbicidal ratio of 90% or more (almost completely withered)) | 0 (Herbicidal ratio of 5% or lower (almost no effect)) | 2 (Herbicidal ratio of 20% or higher and lower than 40%) | 5 (Herbicidal ratio of 90% or more (almost completely withered)) |
| CON=C(C)CC1CC(OC(=O)C(C)(C)Oc2ccccc2)=C(c2c(C)cc(C)cc2C)C1=O (stereo not drawn) [1-017] |  |  | 5 (Herbicidal ratio of 90% or more (almost completely withered)) |  | 5 (Herbicidal ratio of 90% or more (almost completely withered)) |  | 3 (Herbicidal ratio of 40% or higher and lower than 70%) |  |  | 5 (Herbicidal ratio of 90% or more (almost completely withered)) |  |  | 2 (Herbicidal ratio of 20% or higher and lower than 40%) | 5 (Herbicidal ratio of 90% or more (almost completely withered)) | 5 (Herbicidal ratio of 90% or more (almost completely withered)) | 4 (Herbicidal ratio of 70% or higher and lower than 90%) | 5 (Herbicidal ratio of 90% or more (almost completely withered)) | 0 (Herbicidal ratio of 5% or lower (almost no effect)) | 2 (Herbicidal ratio of 20% or higher and lower than 40%) | 5 (Herbicidal ratio of 90% or more (almost completely withered)) |
